From patent US20150140123A1, “Protein expression analyses for identifying genotoxic compounds” (Merck Patent GmbH, priority 2012, published 2015)

System: HepG2 cells
Assay: High content imaging cytotoxicity parameters: selected cell count per valid field (SCC) and CMFDA cytoplasm average intensity
Method: HepG2 cells (Order No. HB-8065, Lot. 58483209, ATCC, Manassas, USA) were cultured in DMEM/F12 with L-Glutamine and 15 mM Hepes supplemented with 10% (v/v) FBS, 1% (v/v) penicillin (10 kU/ml)/streptomycin (10 mg/ml) solution, 0.1% (v/v) gentamicin (50 mg/ml), and 1 mM sodium pyruvate at 37° C. and 5% CO2 in culture flasks. Depending on the experiment, an appropriate number of cells were seeded onto plates after detaching of the cells using trypsin and cells were cultured at 37° C. and 5% CO2 for 24 h prior to treatment. All experiments were performed three times with cells of passages 4-20.
Cells were seeded onto black Poly-D-Lysin coated 96-well-plates (BD Biocoat, Franklin Lakes, USA) (0.02×10^6 cells/well) and left 24 h for adherence and then treated with test compounds at a maximum concentration of 1 mM which is recommended by the ICH S2(R1) guideline (EMA, 2011). For each compound, nine concentrations were tested with 2-fold serial dilutions. DMSO 1% (v/v) served as vehicle control for the experiments. The treatment procedure was different for direct-genotoxic and pro-genotoxic compounds. The treatment for direct genotoxic compounds was ongoing and was repeated daily over 48 h. Pro-genotoxic compounds were incubated for 6 h together with metabolic activation system (to limit the cytotoxic effect of the S9-mixture). After this period, cells were washed with cell media followed by 18-repeated daily over 48 h. The metabolic activation system used consisted of the following components and concentrations: 8 mM MgCl2, 32.8 mM KCl, 12 mM NADPH, 124 mM phosphate buffer and 2500 pmol/ml cytochrome P450 (CYP) content in the pre-mixture corresponding to 2.4 mM MgCl2, 9.8 mM KCl, 3.6 mM NADPH, 37.2 mM phosphate buffer, and 750 pmol/ml CYP as final concentrations after dilution 1:3.33 with cell culture media.
After treatment, cells were rinsed with PBS (Gibco Invitrogen, Karlsruhe, Germany), and then stained with 10 μM CellTracker Green 5-Chloromethylfluorescein Diacetate (CMFDA) (Invitrogen, Karlsruhe, Germany) in cell culture media for 30 min. CMFDA is per se non-fluorescent and is hydrolyzed by esterase in viable cells to a fluorescent-dye. The reaction with thiol groups leads to a cell-impermeable fluorescent-dye-adduct. The esterase activity can be used as an indicator for viability of cells (Papadopoulos et al., 1994, J Immunol Methods 177, 101-11). Afterwards, cells were washed with PBS and fixed with 3.7% Formaldehyde (Sigma-Aldrich, Taufkirchen, Germany) in PBS for 20 min. After that, cells were washed with PBS and blocked and permeabilized with 2% donkey serum (Millipore, Schwalbach, Germany) and 0.25% Triton X-100 (Sigma-Aldrich, Taufkirchen, Germany) in PBS for 30 min. Primary antibodies were diluted in Blocking/Permeabilization solution to final concentrations of 4 μg/ml anti-p-Chk1 (Ser345) goat polyclonal antibody IgG (santa cruz, Santa Cruz, USA), 4 μg/ml anti-p-ATM (Ser1981) mouse monoclonal antibody IgG1K (Millipore, Schwalbach, Germany) and added to the cells. After incubation for 16-18 h, cells were washed with 0.05% Tween 20 (Calbiochem, Darmstadt, Germany) in PBS, and the secondary antibody/16 μM Hoechst staining solution Blocking/Permeabilization solution was added. Secondary antibodies were diluted 1:400 (Alexa Fluor 555 donkey anti-goat, Alexa Fluor 647 donkey anti-mouse, Invitrogen, Karlsruhe, Germany). After an incubation of 1 h, followed by two additional washing steps with 0.05% Tween 20, cells were washed with PBS and finally PBS was added and cells were measured.
Image acquisition was performed on the ArrayScan VTI HCS Reader (Cellomics, Pittsburgh, USA) using a 20× objective. To detect enough cells, 50 images starting at the middle of each well were gathered.
• Channel 1: selected cell count per valid field • Channel 2: CMFDA cytoplasm average intensity • Channel 3: p-Chk1 (Ser345) nucleus average intensity • Channel 4: p-ATM (Ser1981) nucleus average intensity

SMILES | CMFDA +S9 highest conc. <50% cytotox. over control (human, 48 h) [µM] | CMFDA −S9 highest conc. <50% cytotox. over control (human, 48 h) [µM] | SCC +S9 highest conc. <50% cytotox. over control (human, 48 h) [µM] | SCC −S9 highest conc. <50% cytotox. over control (human, 48 h) [µM] | CMFDA +S9 highest conc. <50% cytotox. over control (human) [µM] | CMFDA −S9 highest conc. <50% cytotox. over control (human) [µM] | SCC +S9 highest conc. <50% cytotox. over control (human) [µM] | SCC −S9 highest conc. <50% cytotox. over control (human) [µM] | also measured
Oc1cccc(O)c1 [1,3-Dihydroxybenzene (resorcinol), 1,3-Dihydroxybenzene] | 500 | 1000 | 1000 | 1000 | – | – | – | – | –
CC(=O)Nc1ccc2c(c1)Cc1ccccc1-2 [2-Acetylaminofluorene] | – | – | – | – | – | – | – | – | CMFDA +S9 highest conc. <50% cytotox. over control (HepG2 cells, 48 h, CMFDA cytoplasm average intensity, with rat liver S9 (+S9)): 1000 µM; CMFDA −S9 highest conc. <50% cytotox. over control (HepG2 cells, 48 h, CMFDA cytoplasm average intensity, without metabolic activation (−S9)): 1000 µM; SCC +S9 highest conc. <50% cytotox. over control (HepG2 cells, 48 h, selected cell count per valid field, with rat liver S9 (+S9)): 1000 µM; SCC −S9 highest conc. <50% cytotox. over control (HepG2 cells, 48 h, selected cell count per valid field, without metabolic activation (−S9)): 1000 µM
CCCC(O)C(CC)CO (stereo not shown) [2-Ethyl-1,3-hexanediol] | 1000 | 1000 | 1000 | 1000 | – | – | – | – | –
Cc1c2ccccc2c(C)c2c1ccc1ccccc12 [7,12-Dimethylbenz[a]anthracene] | – | – | – | – | 1000 | 250 | 500 | 125 | –
C[N+](C)(C)CCCl.[Cl-] [(2-chloroethyl)trimethyl-ammonium chloride] | – | – | – | – | 1000 | 1000 | 1000 | 1000 | –
Nc1nc[nH]n1 [Amitrole] | 1000 | 1000 | 1000 | 1000 | – | – | – | – | –
CC1(C)S[C@@H]2[C@H](NC(=O)[C@H](N)c3ccccc3)C(=O)N2[C@H]1C(=O)O [Ampicillin trihydrate] | 1000 | 1000 | 1000 | 1000 | – | – | – | – | –
c1ccc2c(c1)cc1ccc3cccc4ccc2c1c34 [Benzo[a]pyrene] | – | – | – | – | 125 | 125 | 125 | 3.91 | –
OCc1ccccc1 [Benzyl alcohol] | 1000 | 1000 | 1000 | 1000 | – | – | – | – | –
O=C(N[C@H](CO)[C@H](O)c1ccc([N+](=O)[O-])cc1)C(Cl)Cl [Chloramphenicol] | 1000 | 1000 | 1000 | 1000 | – | – | – | – | –
COc1cc(/C=C/C(=O)CC(=O)/C=C/c2ccc(O)c(OC)c2)ccc1O [Curcumin] | 125 | 31.25 | 125 | 31.25 | – | – | – | – | –
O=C1CCCCC1 [Cyclohexanone] | 1000 | 1000 | 1000 | 1000 | – | – | – | – | –
O=P1(N(CCCl)CCCl)NCCCO1 (stereo not shown) [Cyclophosphamide] | – | – | – | – | 62.5 | 1000 | 1000 | 1000 | –
